Experimental findings from article PMC8698721, “Exploration of the Structure–Function Relationships of a Novel Frog Skin Secretion-Derived Bioactive Peptide, t-DPH1, through Use of Rational Design, Cationicity Enhancement and In Vitro Studies” (Antibiotics, 2021) are described below.

≈ marks a conversion by molar mass, not a printed value. Where a SMILES comes first, the peptide text is derived from it.

The subject of one data set is S. aureus (ATCC 6538). The format is cell-based, Staphylococcus aureus. Conditions: ATCC 6538, 24 h. As for the experimental part:
(§1) To assess the antimicrobial activity of t-DPH1 and its designed analogues, MIC and MBC assays were conducted. Seven microorganism strains were used in the assay: Gram-positive bacteria S. aureus (ATCC 6538), E. faecalis (NCTC 12697) and MRSA (NCTC 12493); Gram-negative bacteria E. coli (ATCC 8739), P. aeruginosa (ATCC 9027) and K. pneumoniae (ATCC 43816); yeast, C. albicans (ATCC 10231).
(§2) For MIC assay, the microorganisms were initially incubated in Mueller-Hinton broth (MHB) (for bacteria) or yeast extract peptone dextrose broth (YPD-B) (for yeast) overnight and sub-cultured to achieve their respective logarithmic growth phases (5 × 10^5 CFU/mL). Then, 99 μL of each microorganism and 1 μL of the tested peptide solution were incubated in a 96-well plate. The final on-plate peptide concentrations were from 1 to 512 μM. Except for the peptide group, four other groups were set when conducting this experiment, including a negative control group (PBS), a vehicle control group (1% DMSO), a positive control group (bacteria: 20 μg/mL norfloxacin; yeast: amphotericin B) and a blank control group (MHB or YPD-B with no microorganism culture). Thus, the MIC value represents the lowest concentration of peptides at which no visible growth of the microorganism after 24 h incubation. For the MBC assay, 10 μL of the medium from each clear well was inoculated onto a Mueller–Hinton agar (MHA) (for bacteria) or yeast extract peptone dextrose agar (YPD-A) (for yeast) plate and incubated for 24 h for measurement MBC values.

In data set [1] the test system is Enterococcus faecalis (E. faecalis) (NCTC 12697). The format is cell-based. Particulars: NCTC 12697, 24 h. As for the experimental part: as §1, §2
The test system of data set [2] is Methicillin-resistant Staphylococcus aureus (MRSA) (NCTC 12493). The format is cell-based. Particulars: NCTC 12493, 24 h. The procedure:
as §1, §2

In another data set the test system is E. coli (ATCC 8739). The data set is classed as cell-based, Escherichia coli. Particulars: ATCC 8739, 24 h. As for the experimental part: as §1, §2
For data set [3], the system named is K. pneumoniae (ATCC 43816). The data set is classed as cell-based, Klebsiella pneumoniae. Conditions: ATCC 43816, 24 h. As for the experimental part: as §1, §2
The subject of data set [4] is P. aeruginosa (ATCC 9027). The format is cell-based, Pseudomonas aeruginosa. Conditions: ATCC 9027, 24 h. The procedure:
as §1, §2

In a further data set the test system is C. albicans (ATCC 10231). The data set is classed as cell-based, Candida albicans. Conditions: ATCC 10231, 24 h. The procedure:
as §1, §2

The subject of data set [5] is HMEC-1 (human microvascular endothelial cell line). The format is cell-based. Conditions: 24 h. As for the experimental part: (§3) The MTT assay was conducted to verify the proliferation inhibitory effect of t-DPH1 and its analogues. Human cancer cell lines (NCI-H838 (ATCC® CRL-5844, human non-small cell lung cancer)), (NCI-H157(ATCC® CRL-5802, human non-small cell lung cancer cell line)), (U251MG (ECACC 09063001, human neuronal glioblastoma cancer cell line)), (PC-3 (ATCC® CRL-1435TM, human prostate carcinoma cancer cell line)) and normal human cell lines (HMEC-1(ATCC®-CRL-3243, human microvascular endothelial cell line)) and (HaCaT (ATCC®-PCS-200-011, human keratinocyte cell)) were purchased from the American Type Culture Collection (ATCC, Manassas, VA, USA) and the European Collection of Cell Cultures (ECACC, Sallisbury, UK) for this assay. For the MTT assay, 8000 cells/per well were seeded in the 96-well plate for 24 h. Subsequently, experiment groups were dosed with fresh serum-free medium containing different concentrations of peptides (100 μM to 10 nM) in 3 replicates. Negative control groups and positive control groups were dosed with the fresh serum-free medium containing equal amounts of PBS, and 0.1% (w/v) Triton X-100, respectively. Then the 96-well plate was incubated at 37 °C with 5% CO2 for 24 h. After, ten microliters of MTT solution (5 mg/mL) (Sigma-Aldrich UK Ltd., Gillingham, UK) were added to each well and incubated in a dark environment for two hours. Then, the solution in each well was removed and 100 μL of DMSO were added and then the plate was shaken for 10 min on a shaking incubator before detecting the OD value by use of a Synergy HT plate reader (BioTek, Minneapolis, MN, USA) at λ = 570 nm.

In data set [6] the test system is HaCaT (human keratinocyte cell). The data set is classed as cell-based. Particulars: 24 h. The procedure: as §3
For data set [7], the system named is NCI-H157 (human non-small cell lung cancer cell line). The data set is classed as cell-based. Conditions: 24 h. The procedure:
as §3

The test system of data set [8] is NCI-H838 (human non-small cell lung cancer). The format is cell-based. Particulars: 24 h. As for the experimental part:
as §3

In data set [9] the test system is PC-3 (human prostate carcinoma cancer cell line). The data set is classed as cell-based. Conditions: 24 h. The procedure:
as §3

Data set [10] relates to U251MG (human neuronal glioblastoma cancer cell line). The format is cell-based. Conditions: 24 h. As for the experimental part:
as §3

A further data set deals with horse red blood cells. The format is cell-based. The procedure: The haemolysis assay was performed by mixing 2% (v/v) fresh defibrinated horse blood (TCS Biosciences Ltd., Buckingham, UK) with peptides in different concentrations. Before the test, horse blood was rinsed with PBS three to four times until the supernatant was clear. Next, peptide solutions (from 100 μM to 1 nM) were incubated with the suspension of red blood cells at 37 °C for two hours. The blood cells treated with 1% Triton-X 100 were used as the positive control, and the blood cells treated with PBS were used as the negative control. After incubation, 100 μL of the supernatant from each sample were transferred to a new 96-well plate, and the OD value of each well was measured with a Synergy HT plate reader (BioTek, Minneapolis, MN, USA) with the absorbance set to 570 nm.

For data set [11], the system named is PC-3, H838, H157 and U251MG cancer cell lines. The data set is classed as cell-based, human. Conditions: 24 h. As for the experimental part: as §3, with “Then the 96-well plate was incubated at 37 °C with 5% CO2 for 24 h. After, ten microliters of MTT solution (5 mg/mL) (Sigma-Aldrich UK Ltd., Gillingham, UK) were added to each well and incubated in a dark environment for two hours.” left out

Take `CC[C@H](C)[C@H](NC(=O)[C@H](CCCCN)NC(=O)[C@H](CO)NC(=O)[C@H](Cc1c[nH]c2ccccc12)NC(=O)[C@H](CC(C)C)NC(=O)CN)C(=O)N[C@@H](CCCCN)C(=O)N[C@@H](CC(N)=O)C(=O)N[C@H](C(=O)N[C@@H](C)C(=O)N[C@@H](C)C(=O)N[C@@H](C)C(=O)N[C@@H](C)C(=O)NCC(=O)N[C@@H](CCCCN)C(=O)N[C@@H](C)C(=O)N[C@@H](C)C(=O)N[C@@H](CC(C)C)C(=O)NCC(=O)N[C@@H](C)C(=O)N[C@@H](CC(C)C)C(N)=O)C(C)C` [t-DPH1] (H-GLWSKIKNVAAAAGKAALGAL-NH2): the MBC amounted to 16 µM (≈ 32.2 µg/mL) against S. aureus (ATCC 6538); 256 µM (≈ 514 µg/mL) in data set [1]; 32 µM (≈ 64.3 µg/mL) in [2]; 4 µM (≈ 8.04 µg/mL) in the data set on E. coli (ATCC 8739); 16 µM (≈ 32.2 µg/mL) in data set [3]; 32 µM (≈ 64.3 µg/mL) in data set [4]. The MBC in the data set with C. albicans (ATCC 10231) is 128 µM (≈ 257 µg/mL). The minimal inhibitory concentration (MIC) against S. aureus (ATCC 6538) worked out at 8 µM (≈ 16.1 µg/mL); in data set [1], 128 µM (≈ 257 µg/mL); in data set [2], 16 µM (≈ 32.2 µg/mL); against E. coli (ATCC 8739) it was 2 µM (≈ 4.02 µg/mL); in [3], 8 µM (≈ 16.1 µg/mL); in [4], 16 µM (≈ 32.2 µg/mL). In the data set with C. albicans (ATCC 10231), this compound had a minimal inhibitory concentration (MIC) of 64 µM (≈ 129 µg/mL). In data set [5], the “IC50 against HMEC-1” value was determined as 29.85 µM. Further, the “IC50 against HaCaT” value in [6] came to 175.6 µM. In addition, the IC50 in [7] was 10.2 µM; in data set [8], 23.5 µM; in data set [9] it was 14.7 µM; in data set [10], 34.2 µM; in [11] it was 10.2 to 34.2 µM. In addition, the haemolysis entry with horse red blood cells (100 µM) is listed as “over 50%”. Also, the 50% haemolytic concentration (HC50) with horse red blood cells (red cells of horse) was found to be 106.4 µM.
